{"source": "paper PMC12195740", "about": "“Discovery of Novel Imidazothiazole-Based Hydroxamic Acid Derivatives as Potent Indoleamine 2,3-Dioxygenase 1 and Histone Deacetylase 6 Dual Inhibitors” (Molecules, 2025)", "key": {"CT26 tumors": {"system": "CT26 tumors", "experiment": "In vivo antitumor efficacy, CT26 tumor-bearing BALB/c mice", "conditions": "150 mg/kg ip every 3 days for 21 days", "description": "(§1) After that, fixed cells were washed with PBS. Then, cells were isolated by centrifugation and stained with propidium iodide (KeyGEN BioTECH, China) for 30 min. The samples were measured using flow cytometry and analyzed by Flowjo software.\n(§2) Section S 1.6 Western blot assay […]\n(§3) earlier were obtained by lysing the cells in ice-cold RIPA buffer with protease and phosphatase inhibitor and stored at -20°C for future use. The protein concentrations were quantified by the Bradford method (Bio-Rad) using a Multimode Varioscan instrument (Thermo Fischer Scientific). […]\n(§4) and transferred to a polyvinylidene difluoride (PVDF) membrane (Amersham Biosciences). After the membrane was blocked at room temperature for 2 h in blocking solution, primary antibody was added and incubated at 4°C overnight. Ac-α-tubulin, Ac-histone H3 and GAPDH antibodies were purchased from Imgenex, USA. After three TBST washes, the membrane was incubated with corresponding horseradish peroxidase-labeled secondary antibody (1:2,000) (Santa Cruz) at room temperature for 1 h. Membranes were washed with TBST three times for 15 min and the protein bands were detected with chemiluminescence reagent (Thermo Fischer Scientific). The X-ray films were developed using developer and fixed with fixer solution.\n(§5) Section S 1.7 In vivo antitumor efficacy […]\nline CT-26 in BALB/c mice as described previously. […]"}, "HDAC11": {"target": "T1, HDAC11 (Homo sapiens, UniProt Q96DB2)", "T1 sequence (Q96DB2 1-347)": "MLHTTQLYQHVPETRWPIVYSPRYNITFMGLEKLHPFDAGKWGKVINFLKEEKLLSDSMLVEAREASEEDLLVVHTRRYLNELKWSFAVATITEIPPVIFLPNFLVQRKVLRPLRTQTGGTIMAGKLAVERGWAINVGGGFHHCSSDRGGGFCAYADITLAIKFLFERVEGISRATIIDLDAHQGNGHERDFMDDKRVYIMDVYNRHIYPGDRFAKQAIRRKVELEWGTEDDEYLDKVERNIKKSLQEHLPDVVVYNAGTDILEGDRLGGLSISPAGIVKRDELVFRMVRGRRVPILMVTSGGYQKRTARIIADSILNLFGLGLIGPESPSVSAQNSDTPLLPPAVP", "experiment": "HDAC isoform selectivity assay, HDAC11", "type": "biochemical", "conditions": "read-out: HDAC11 % inhibition rate at 10 μM"}, "HDAC1": {"target": "HDAC1 (Homo sapiens, UniProt Q13547)", "sequence (Q13547 whole entry, species assumed, canonical isoform)": "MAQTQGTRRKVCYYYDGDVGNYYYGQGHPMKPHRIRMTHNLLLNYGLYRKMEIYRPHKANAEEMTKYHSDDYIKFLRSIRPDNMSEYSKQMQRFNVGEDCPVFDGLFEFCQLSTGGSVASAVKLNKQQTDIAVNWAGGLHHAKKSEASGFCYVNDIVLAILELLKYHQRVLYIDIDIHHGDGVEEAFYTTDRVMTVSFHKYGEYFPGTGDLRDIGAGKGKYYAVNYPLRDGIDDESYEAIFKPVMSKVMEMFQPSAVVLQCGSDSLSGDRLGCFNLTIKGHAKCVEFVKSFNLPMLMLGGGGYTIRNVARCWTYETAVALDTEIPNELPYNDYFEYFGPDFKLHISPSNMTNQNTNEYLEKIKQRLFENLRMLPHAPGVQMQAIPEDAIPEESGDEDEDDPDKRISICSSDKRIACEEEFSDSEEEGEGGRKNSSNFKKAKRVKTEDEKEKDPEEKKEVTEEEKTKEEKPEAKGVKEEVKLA", "experiment": "HDAC isoform selectivity assay, HDAC1", "type": "biochemical"}, "[1]": {"system": "Ac-histone H3 (substrate for HDACs 1, 2, and 3)", "experiment": "Western blot of Ac-histone H3 in HCT-116 cells", "type": "cell-based", "conditions": "HCT-116, 20 μM, 24 h", "description": "Since HDACs regulate the acetylation status of histone and nonhistone proteins in cells, the acetylation levels of histone H3 (a known substrate for HDACs 1, 2, and 3) and α-tubulin (a known substrate for HDAC6) are frequently used as markers of cellular HDAC activity. […] HCT-116 cells were incubated with compound 10e (5−20 μM) for 24 h, and the levels of acetylation of histone H3 and α-tubulin were detected by the Western blot. […]\nwith 75% cold ethanol at 4 °C overnight. After that, fixed cells were washed with PBS. Then, cells were isolated by centrifugation and stained with propidium iodide (KeyGEN BioTECH, China) for 30 min. The samples were measured using flow cytometry and analyzed by Flowjo software.\nSection S 1.6 Western blot assay\nas §3, with “Total cell lysates from cultured HCT-116 cells after treatment with compound 10e as mentioned earlier” for “earlier”\nThe in vivo antitumor activity of compound 10e was evaluated in the mouse colon carcinoma cell line CT-26 in BALB/c mice as described previously. […]"}, "SW480 cells": {"system": "SW480 cells", "experiment": "Cell viability (MTT) assay, SW480", "conditions": "Homo sapiens, SW480, 48 h, read-out: Antiproliferative IC50, SW480", "procedure": "Section S 1.3 Cell viability assays\nCell Bank at the Chinese Academy of Sciences.\nDMEM and FBS were obtained from Gibco-Thermo (BRL Co. Ltd., USA).\nanother 48 h. The cells were stained with 10 μl of MTT at incubator for approximately 4 h. The medium was discarded and replaced by 100 mL DMSO. The O.D. value was read at 570/630 nm with a spectrophotometer."}, "[2]": {"experiment": "General toxicity in CT26 tumor-bearing BALB/c mice (body weight, H&E of organs)", "type": "in vivo", "conditions": "150 mg/kg ip every 3 days for 21 days", "description": "as §1, §2, §3, §4, §5\nline CT-26 in BALB/c mice as described previously. Five-week-old male BALB/c mice were purchased from the Shanghai Ling Chang biotechnology company (China), and tumors were induced through subcutaneous injection of 1 × 10^7 cells in 100 µL of sterile PBS into the dorsal region. The animals were divided into four groups, starting on the second day. When the tumors reached a volume of 50−100 mm3 in all mice, the first group was administered intraperitoneally with an equivalent volume of 5% dextrose as the vehicle control. The second group was treated with […]\ntreated with complex 10e at doses of 150 mg/kg body weight once every 3 days for 3 weeks, respectively. All compounds were dissolved in vehicle. Tumor volumes and body weights were […]"}}}
{"smiles": "O=C(CCCCCCNc1ccc(NC(=O)c2cnc3scc(-c4ccc(Br)cc4)n23)cc1)NO", "note": "[Compound 10e, 3-(4-Bromophenyl)-N-{4-[(7-(hydroxyamino)-7-oxoheptyl)amino]phenyl}imidazo[2,1-b]thiazole-5-carboxamide]", "values": [{"measurement": "relative tumor volume growth rate (T/C)", "setting": "CT26 tumors", "value": 38.32, "unit": "%"}, {"measurement": "tumor growth inhibition (TGI)", "setting": "CT26 tumors", "value": 60.2, "unit": "%"}, {"measurement": "inhibition at 10 µM", "setting": "HDAC11", "value": 24.4, "unit": "%"}, {"measurement": "IC50", "setting": "HDAC1", "value": 1.08, "unit": "µM"}, {"measurement": "Ac-histone H3 levels", "setting": "[1]", "value": "slight increase"}, {"measurement": "IC50", "setting": "SW480 cells", "value": "23.4 ± 3.86", "unit": "µM"}, {"measurement": "histology of liver, spleen, and kidney (H&E staining)", "setting": "[2]", "value": "no obvious histological differences"}, {"measurement": "influence on body weight of the mice", "setting": "[2]; versus vehicle group", "value": "no obvious influence"}]}
